The source of these data is US10092537B2, “Use for PAI-1 inhibitor” (RENASCIENCE CO., LTD., priority 2013, dated 2018).

In test [1] the test system is CML cells. Put plainly: Chronic myelogenous leukemia model mice, imatinib with compound d or compound e (Experimental Example 17). Format: in vivo. The protocol: (§1) Group 1: placebo group (physiological saline was administered via gavage)
(§2) Group 2: imatinib group (imatinib [150 mg/kg/day] was administered via gavage)
Group 3: imatinib+compound d group (imatinib [150 mg/kg/day] and compound d [10 mg/kg/day] were administered via gavage)
Group 4: imatinib+compound e group (imatinib [150 mg/kg/day] and compound e [10 mg/kg/day] were administered via gavage)
8 days after (day 8) the day (day 0) on which CML cells were intravenously inoculated, administration of test drugs to the groups was started. The placebo group and the imatinib group were administered the respective test drugs once a day from day 8 to day 14 (7 doses in total). The imatinib+compound d group and imatinib+compound e group were administered imatinib once a day from day 8 to day 14 (7 doses in total), and also administered compound d or e once a day from day 8 to day 14 (7 doses in total).

Test [2] deals with hematopoietic stem cells. The test is described as follows: Cell cycle (Ki-67, BrdU) and apoptosis (Annexin V) of bone-marrow cells 1 week after bone-marrow transplantation (Experimental Example 9). Format: in vivo, mice. The protocol:
In accordance with Experimental Example 7 (1), bone-marrow transplantation was conducted, and after the transplantation, physiological saline (control group), tPA (tPA-administered group), or compound a (compound a-administered group) was administered.
1 week after bone-marrow transplantation, the bone marrow was collected, and Ki-67 protein, which is a cell division marker, was immunostained with anti-Ki-67-FITC antibody (BD Bioscience) to analyze the cells in the cell-division cycle by FACSCalibur.
Subsequently, the number of Ki-67 positive cells in the cells of LSK fraction was examined to confirm that the proliferation of hematopoietic stem cells is promoted by compound a.
In addition, to more accurately detect the cells that moved to the S phase, 5-bromo-2-deoxyuridine (BrdU)-FITC (BD Pharmingen) was administered to the control group, tPA group, and compound a-administered group 1 week after bone-marrow transplantation, 3 hours before the collection of bone marrow. 6 mice were used for each group.
Because BrdU is a thymine derivative, BrdU, substituting for thymine, is incorporated into genomic DNA or the like during DNA replication. BrdU more specifically reflects the S phase than Ki-67 protein.
1 week after bone-marrow transplantation, bone marrow was collected from the control group, tPA group, and compound a-administered group (6 mice for each group), and Annexin V, which appears specifically in apoptosis, was detected with anti-Annexin V antibody immunostaining.

Test [3] deals with hematopoietic stem cells. The test is described as follows: Fibrinolytic pathway activation and bone-marrow regeneration after lethal radiation (9Gy) and bone-marrow transplantation, compound a versus recombinant tPA (Experimental Example 7).
The subject of test [4] is hematopoietic stem cells. Put plainly: Frequency and absolute number of hematopoietic stem cells after bone-marrow transplantation (Experimental Example 8 (1)). The following applies: 1 and 3 weeks after bone-marrow transplantation; compared with control group. Format: in vivo, mice. The protocol:
In accordance with the procedure of Experimental Example 7 (1), bone marrow was transplanted, and tPA or compound a was administered in the same manner as in Experimental Example 7. Physiological saline was administered to a control group. 1 and 3 weeks after bone-marrow transplantation, 12 mice of each group were measured for the number of bone-marrow mononucleic cells (BM MNC), the frequency and absolute number of Lin-SLAM cells, and the frequency and absolute number of LSK-CD34 negative cells.

Test [5] relates to CML cells. Put plainly: Chronic myelogenous leukemia model mice, CML cells engrafted onto bone marrow by FACS (Experimental Example 15). Format: in vivo. The protocol: Chronic myelogenous leukemia model mice prepared in accordance with the procedure of Experimental Example 11 (1) were divided into 3 groups (each group: n=15) and administered respective test drugs.
as §1, §2
(§3) Group 3: imatinib+compound c group (imatinib [150 mg/kg/day] and compound c [10 mg/kg/day] were administered via gavage)
8 days (day 8) after the day on which CML cells were intravenously inoculated (day 0), administration of test drugs to the groups was started. The placebo group and the imatinib group were administered the respective test drugs once a day from day 8 to day 14 (7 doses in total). The imatinib+compound c group was administered imatinib once a day from day 8 to day 14 (7 doses in total), and also administered compound c once a day from day 8 to day 14 (7 doses in total).
CML cells engrafted onto bone marrow were analyzed by FACS immediately before the administration of a test drug (day 8; “immediately before antitumor agent treatment” in FIG. 19), immediately after the completion of administration of a test drug (day 14; “immediately after antitumor agent treatment” in FIG. 19), and day 28 from the start of administration of a test drug (day 36; “after 28 days” in FIG. 19). […] About 50% leukemia cells were grafted on the bone marrow immediately before administration of a test drug (day 8; “immediately before antitumor agent treatment” in FIG. 19). After the tumor-bearing mice were administered a test drug 7 times (day 14), the proportion of CML cells was analyzed. […] All of the mice in the group administered physiological saline died.
(A flow cytometer gives signals particle by particle.)

Test [6] concerns CML cells. The test is described as follows: Chronic myelogenous leukemia model mice, imatinib, PAI-1 inhibitor and G-CSF neutralizing antibody (Experimental Example 14). Format: in vivo. The protocol:
In this experiment, whether G-CSF is involved in the effect was examined. Compound a was used as a PAI-1 inhibitor.
as §1
Group 2: IM group (imatinib [150 mg/kg/day] was administered via gavage)
Group 3: IM+anti-G-CSF group (imatinib [150 mg/kg/day] was administered via gavage, G-CSF neutralizing antibody [500 μg/kg/day] was subcutaneously administered)
Group 4: IM+TM group (imatinib [150 mg/kg/day] and compound a [100 mg/kg/day] were administered via gavage)
Group 5: IM+TM+anti-G-CSF group (imatinib [150 mg/kg/day] and compound a [100 mg/kg/day] were administered via gavage, and G-CSF neutralizing antibody [500 μg/kg/day] was subcutaneously administered)
The day on which CML cells were inoculated was set as day 0, and each test drug was administered from day 8 to day 14 (7 doses in total).

Test [7] deals with CML cells (32Dp210-GFP cells). Put plainly: Chronic myelogenous leukemia model mice, imatinib and compound a (Experimental Example 11). It counts as in vivo, C3H/HeJ mice. The note with it: imatinib 150 mg/kg/day alone. The protocol: p210(BCR-ABL) gene was inserted into a MIGR1 vector, and GFP cDNA was further incorporated as a reporter gene downstream of the gene (hereinafter, the vector is referred to as “p210-GFP”). p210-GFP was infected with 32D cells (C3H/HeJ mice cell line), and chronic myelogenous leukemia (hereinafter, referred to as “CML”) cells were prepared. 2.5×10^5 of the thus-obtained CML cells (32Dp210(BCR-ABL)-GFP cells, hereinafter, referred to as “32Dp210-GFP cells”) were intravenously administered into the retro-orbital plexus of C3H/HeJ mice. 7 to 10 days after the transplantation, the abundance ratio of GFP cells in the peripheral blood was analyzed, and mice with more than 3% of abundance ratio were used as chronic myelogenous leukemia model mice in the following experiments.
15 chronic myelogenous leukemia model mice prepared by using the procedure described above were divided into the following 3 groups (each group: n=15), and a test drug was administered to the mice in accordance with the protocol shown in FIG. 15A.
as §1, §2
Group 3: imatinib+compound a group (imatinib [150 mg/kg/day] and compound a [100 mg/kg/day] were administered via gavage)
10 days (day 10) after the day on which CML cells were intravenously inoculated (day 0), administration of test drugs to the groups was started. The placebo group and the imatinib group were administered the respective test drugs once a day from day 10 to day 16 (7 doses in total). The imatinib+compound a group was administered imatinib once a day from day 10 to day 16 (7 doses in total), and also administered compound a once a day from day 10 to day 14 (5 doses in total).
As described above, 32Dp210-GFP includes GFP as a reporter gene, and thus, the CML cells having 32Dp210-GFP inserted (32Dp210-GFP cells) are GFP-positive. Therefore, using FACS (FACS (BD Biosciences: FACSCalibur), the frequency of CML cells (32Dp210-GFP cells) in mononucleic cells of the bone marrow and spleen was measured and compared between the imatinib group and the imatinib+compound a group.

The test system of test [8] is CML cells. The test is described as follows: Chronic myelogenous leukemia model mice, compound a alone, imatinib, combination (Experimental Example 16). The note with it: imatinib 150 mg/kg/day alone. It counts as in vivo. The protocol: as §1
Group 2: compound a group (compound a [100 mg/kg/day] was administered via gavage)
Group 3: imatinib group (imatinib [150 mg/kg/day] was administered via gavage)
Group 4: imatinib+compound a group (imatinib [150 mg/kg/day] and compound a [100 mg/kg/day] were administered via gavage)
10 days after (day 10) the day on which CML cells were intravenously inoculated (day 0), administration of test drugs to the groups was started. The placebo group, the compound a group, and the imatinib group were administered the respective test drugs once a day from day 10 to day 16 (7 doses in total). The imatinib+compound a group was administered imatinib once a day from day 10 to day 16 (7 doses in total), and also administered compound a once a day from day 10 to day 16 (7 doses in total).

The subject of test [9] is CML cells (32Dp210-GFP cells). The test is described as follows: Chronic myelogenous leukemia model mice, imatinib and compound c (Experimental Example 12). Format: in vivo. The note with it: imatinib 150 mg/kg/day alone. The protocol:
Chronic myelogenous leukemia model mice prepared in the same manner as in Experimental Example 11 were divided into the following 3 groups (each group: n=10), and the groups were administered respective test drugs in accordance with the protocol shown in FIG. 15A.
as §1, §2, §3
8 days (day 8) after the day on which CML cells (32Dp210-GFP cells) were intravenously inoculated (day 0), administration of the test drugs to the groups was started. The placebo group and the imatinib group were administered the respective test drugs once a day from day 8 to day 14 (7 doses in total). The imatinib+compound c group was administered imatinib once a day from day 8 to day 14 (7 doses in total), and also administered compound c once a day from day 8 to day 14 (7 doses in total).

Setting [10] is: tPA group compared with control group, compound a group compared with tPA group.

On to `O=C(COCC(=O)Nc1ccc(Cl)cc1C(=O)O)Nc1cccc(-c2ccco2)c1` [Example 61 (compound group 3), 5-chloro-2-{[(2-{[3-(furan-2-yl)phenyl]amino}-2-oxoethoxy)acetyl]amino}benzoic acid], for which the survival entry in the test on CML cells [1] (imatinib 150 mg/kg/day + compound d or compound e 10 mg/kg/day via gavage, day 8 to day 14) is “some mice survived even after day 40”.

In the case of “tPA: recombinant tPA (tissue-type plasminogen activator), Eisai Co., Ltd”, the “proportion of cells that were induced apoptosis (Annexin V)” value in the test with hematopoietic stem cells [2] (compared with control group) is on record as “decrease”. Further, in the test on hematopoietic stem cells [2] (control group 18.1%), the “cells in the S phase (BrdU incorporated into LSK cells)” value came to 18.8%. For the same molecule, the “Ki-67 positive, cells classified into the LSK fraction taken as 100%” value with hematopoietic stem cells [2] (control group 43.3%) was 50.7%. Moreover, in the test with hematopoietic stem cells [2] (control group 44.2%), the “cell count of cells at the S-G2-M phase (Ki-67) in bone-marrow mononucleic cells” value came to 50.8%. Also, in the test with hematopoietic stem cells [2] (control group 55.8%), the “cell count of cells at the G0/G1 phase (Ki-67) in bone-marrow mononucleic cells” value is on record as 49.2%. In addition, in the test with hematopoietic stem cells [3] (2 days after bone-marrow transplantation, among control, tPA and compound a groups), the “level of active tPA in plasma” value is “highest level”. Further, the “expression of active PAI-1 in the plasma” value in the test with hematopoietic stem cells [3] (compound a or recombinant tPA 100 mg/kg, 5 consecutive days, 2 and 7 days after bone-marrow transplantation) is listed as “lower than that of the control group”. The “survival rate on day 28 from bone-marrow transplantation” value in the test on hematopoietic stem cells [3] (lethal radiation 9Gy, 100 mg/kg, 5 consecutive days, n=15, control group 20%) is 50%. Moreover, in the test on hematopoietic stem cells [3] (setting [10]), the “platelet count in the peripheral blood” value is reported as “significantly increased” and the “white blood cell count in the peripheral blood” value is recorded as “significantly increased”. In the test on hematopoietic stem cells [4], the “number of bone-marrow mononucleic cells” value was “slightly larger”.

For the molecule `Cc1ccc(NC(=O)c2ccc(CN3CCN(C)CC3)cc2)cc1Nc1nccc(-c2cccnc2)n1` [imatinib, reference compound], the “CML (leukemia) cells in the bone marrow” value with CML cells [5] (imatinib 150 mg/kg/day alone, day 8 to day 14, analysed day 36) was determined as 55.5%. In addition, the “proportion of CML cells in the bone marrow” value in the test on CML cells [5] (imatinib alone, day 14, after 7 doses, about 50% before treatment) was “marked decrease”. Also, the median survival period was 22 days with CML cells [6] (IM group: imatinib 150 mg/kg/day alone, placebo 15 days); 23 days in the test on CML cells [6] (IM+anti-G-CSF group: imatinib 150 mg/kg/day + G-CSF neutralizing antibody 500 μg/kg/day); 27 days in test [7] (placebo 14 days); 23.5 days in test [9] (placebo 15.5 days). For the same molecule, the survival entry in the test on CML cells [6] (IM group: imatinib alone) is on record as “all of the mice died by day 30”; with CML cells [6] (IM+anti-G-CSF group), “all of the mice died by day 30”; in test [7] it was “all of the mice died by day 40”; in the test with CML cells [1] (imatinib 150 mg/kg/day alone), “all of the mice died by day 40”; in the test with CML cells [8] it was “all of the mice died by day 40”; in [9], “all of the mice died by day 35”. Also, in test [7], the “frequency of 32Dp210-GFP cells in bone-marrow mononucleic cells” value is reported as “about 55%”. In test [7], the “frequency of CML cells (32Dp210-GFP cells) in the spleen” value is “about 76%”.
